# Experimental data from publication PMC7759686, “Pharmacokinetics and Immunological Effects of Romidepsin in Rhesus Macaques” (Frontiers in Immunology, 2020).
# Several values for one entry are separate records, joined by “and”; a condition that tells them apart may be missing. Equal entries are not always repeated.
# Columns and labels:
# Cortisol ELISA in plasma = assay type: in vivo, rhesus macaques (Macaca mulatta); details: RMD-infused RMs vs saline controls (peak 6 h, decreasing from day 1); n = 3 per group
# Excerpt: Cortisol ELISA. To assess the levels of stress associated with the different animal procedures used, frozen plasma was thawed, and dilutions of either 1:16 to 1:50 were used to measure the circulating cortisol levels with a cortisol ELISA kit (ENZO, Farmingdale, NY, USA), as per manufacturer instructions. The results were read at 405 nm on a Ultrospec 2100 Pro (Amersham Biosciences, Little Chalfont, UK) and results interpolated by Prism 8.4.3 (GraphPad Software, Inc., San Diego, CA) using 4 parameter logistic curve fitting.
# HIV = details: cited from earlier work
# Excerpt: Because we measured the prodrug form of RMD, it is possible that the maintained concentrations are due to either greater distribution to the tissue compartments, reduced conversion of the RMD to the active, reduced form, trapping of RMD between the extracellular and interstitial spaces, or a combination of these. As ...
# CD8+ T cells = assay: T lymphocyte functional assay (PMA/ionomycin stimulation, flow cytometry); assay type: in vivo, rhesus macaques (Macaca mulatta)
# Procedure: To simplify the complication of RMD treatment and SIV infection, it was vital to assess the impact of RMD administration on the T-cell function, particularly on the cellular immune responses on uninfected RMs. Due to the incapability to assess the SIV-specific immune responses, the overall cytotoxic capacity of lymphocytes in the blood was assessed as follows. Frozen PBMCs were thawed, counted, and were either unstimulated or stimulated with PMA and ionomycin (Sigma, St. Louis, MO). PBMCs were stained with the following antibodies: CD3-V500 (SP34-2), CD4-APC (L200), CD8-PE-CF594 (RPA-T8), CD107a-APC-Cy7 (H4A3), Granzyme A-PerCP/Cy5.5 (CB9) (BioLegend), Granzyme B-Alexa Flour 700 (GB11), Granzyme K-FITC (GM6C3) (Santa Cruz Biotechnology, Dallas, TX), IFN-γ-FITC (4S.B3), and Perforin-PE (B-D48) (BioLegend); antibodies were from BD Biosciences unless otherwise noted. Stained PBMCs were then acquired on an LSR-II flow cytometer. Data were analyzed using FlowJo software (Treestar).
# Previous studies reported conflicting data as to whether the functionality of CTLs is diminished by RMD administration ([41], [64]). Therefore, we performed functional assays on lymphocytes collected from superficial and mesenteric LNs and intestinal resections, focusing on the overall expression of the surrogate killing marker CD107a, along with granzymes A, B, and K, IFN-γ, and perforin with PMA and ionomycin stimulation ( Figure 11 ).
# CD3+ T cells in tissues = assay: CD3+ T cell frequency in intestine and LNs by immunofluorescence; assay type: in vivo, rhesus macaques (Macaca mulatta); details: for CD3+ T cells in superficial LNs, area fraction: average, pretreatment 30%, 7 mg/m^2
# Procedure: CD3^+ T cell frequency in the intestine and LNs was assessed through immunofluorescence (IF), as described ([55]). Fixed, paraffin-embedded tissues from the three RMs were cut and placed onto microscope slides. The slides were treated three times with xylene (Thermo Fisher Scientific), run through an ethanol battery, washed with dH2O, and placed into 1× PBS (Thermo Fisher Scientific). Slides were microwaved with Antigen Unmasking Solution (Vector Labs, Burlingame, CA) for antigen retrieval. Once slides had cooled, they were washed three times in 1× PBS and the tissues were circled with Immedge Pen (Vector Labs) to create a hydrophobic barrier. Dako Serum-Free Protein Block (Agilent, Santa Clara, CA) was added to the tissues. The Dako Protein Block was dumped off and the slides incubated with mouse α-CD3 (Agilent). The primary antibody was dumped off and slides washed in 1× PBS as previously noted. The remaining steps were completed in the dark. The slides were incubated with the secondary antibody, goat α-mouse (Alexa Fluor 488) (Invitrogen) followed by a subsequent 1× PBS wash. The slides were incubated with DAPI (Millipore Sigma, Burlington, MA), and then dumped off and washed with 1× PBS, followed by dH2O, and dried. Coverslips were then mounted to the slides with fluorescent mounting media (Agilent). Slides were visualized and imaged with Zeiss Imager M1 microscope and Axiovision software [V4.8.2.0 (Carl Zeiss AG, Oberkochen, Germany)]. Image quantifications were performed using the FIJI distribution ([56]) of ImageJ 1.52c ([57]), where positive fluorescent signals were isolated by setting color thresholds and the percent positive area was calculated.
# [1] = RMD pharmacokinetics in plasma and tissues (LC-MS/MS); details: 7 mg/m^2 4-h IV infusion; for RMD plasma concentration at 2 h postinfusion: second round
# [2] = human, in vivo; cited from earlier work
# [3] = intestine, 2 days postinfusion, pretreatment 2%
# [4] = mesenteric LN, 1 day postinfusion, pretreatment 2%
# [5] = superficial LN, 2 days postinfusion, pretreatment 1%
# [6] = superficial LN, 2 days postinfusion, pretreatment 4%
# [7] = kel from mean concentration-time profile of 3 RMs
smiles,measurement,setting,value
"C/C=C1\NC(=O)[C@H]2CSSCC/C=C/[C@H](CC(=O)N[C@H](C(C)C)C(=O)N2)OC(=O)[C@H](C(C)C)NC1=O [RMD, romidepsin]",plasma cortisol levels after infusion,Cortisol ELISA in plasma,remained elevated through 2 dpi
same,concentration found to readily reactivate HIV in vitro,HIV,5 nM
same,Granzyme K expression in CD8+ T cells,"CD8+ T cells; intestine, 2 days postinfusion, pretreatment 1%",< 1%
same,CD107a expression in CD8+ T cells,CD8+ T cells; [3],1%
same,Granzyme A expression in CD8+ T cells,CD8+ T cells; [3],< 1%
same,Perforin expression in CD8+ T cells,"CD8+ T cells; intestines, 2 days postinfusion, pretreatment 1%",< 1%
same,IFN-γ expression in CD8+ T cells,"CD8+ T cells; intestines, 2 days postinfusion, pretreatment 2%",1%
same,Granzyme B expression in CD8+ T cells,"CD8+ T cells; intestines, 2 days postinfusion, pretreatment 11%",3%
same,CD107a expression in CD8+ T cells,"CD8+ T cells; mesenteric LN, 1 day postinfusion, pretreatment 1%",< 1%
same,Granzyme K expression in CD8+ T cells,CD8+ T cells; [4],< 1%
same,Perforin expression in CD8+ T cells,CD8+ T cells; [4],< 1%
same,IFN-γ expression in CD8+ T cells,"CD8+ T cells; mesenteric LN, 1 day postinfusion, pretreatment 5%",3%
same,Granzyme B expression in CD8+ T cells,"CD8+ T cells; mesenteric LN, 2 days postinfusion, pretreatment 5%",2%
same,Granzyme A expression in CD8+ T cells,"CD8+ T cells; mesenteric LNs, 1 day postinfusion, pretreatment 1%",< 1%
same,CD107a expression in CD8+ T cells,CD8+ T cells; [5],< 1%
same,Granzyme K expression in CD8+ T cells,CD8+ T cells; [5],< 1%
same,Perforin expression in CD8+ T cells,CD8+ T cells; [5],< 1%
same,Granzyme B expression in CD8+ T cells,CD8+ T cells; [6],1%
same,IFN-γ expression in CD8+ T cells,CD8+ T cells; [6],1%
same,Granzyme A expression in CD8+ T cells,"CD8+ T cells; superficial LNs, 2 days postinfusion, pretreatment 1%",< 1%
same,"CD3+ T cells in superficial LNs, area fraction",CD3+ T cells in tissues; 6 h postinfusion,40%
same,"CD3+ T cells in intestine, area fraction","CD3+ T cells in tissues; 1 day postinfusion, three RMs, pretreatment 5.8%, not significant",7.6%
same,"CD3+ T cells in superficial LNs, area fraction",CD3+ T cells in tissues; 7 days postinfusion,41%
same,"CD3+ T cells in mesenteric LNs, area fraction","CD3+ T cells in tissues; animal RM71, 1 day postinfusion, pretreatment 31%",43%
same,"CD3+ T cells in mesenteric LNs, area fraction","CD3+ T cells in tissues; animals RM32 and RM33, 1 day postinfusion vs pretreatment, p > 0.05",virtually unchanged
same,GI tract terminal half-life relative to plasma,[1],1.8 fold
same,LN terminal half-life relative to plasma,[1],seven-fold longer
same,plasma concentration at 8 h postinfusion,[1],5.16 nM
same,time with quantifiable concentrations in GI tract,[1]; last sampling 10 days,10 days postinfusion
same,time with quantifiable concentrations in LNs,[1]; last sampling 10 days,10 days postinfusion
same,mean terminal half-life in plasma,"[1]; 3 SIV-naïve RMs, kel from semi-log regression of individual plasma data, observations after 96 h omitted",15.3 h
same,RMD concentration in intestine at 4 h postinfusion,[1]; animal RM32,354 ng/g
same,RMD plasma concentration at 2 h postinfusion,"[1]; animal RM32, LC-MS/MS",47 ng/mL
same,RMD concentration in intestine at 4 h postinfusion,[1]; animal RM33,"3,932 ng/g"
same,RMD plasma concentration at 2 h postinfusion,"[1]; animal RM33, LC-MS/MS",7.7 ng/mL and 8 ng/mL
same,RMD plasma concentration at 2 h postinfusion,"[1]; animal RM71, LC-MS/MS",4.7 ng/mL and 5 ng/mL
same,plasma concentration at 2 h postinfusion,[1]; group value of 3 RMs,19.9 ng/mL
same,RMD concentration in LNs at 4 h postinfusion,"[1]; individual values of 3 RMs, superficial LNs, tissue density 1.0 g/ml assumed, LC-MS/MS",70 ng/mL and 75 ng/mL and 101 ng/mL
same,mean terminal half-life in gastrointestinal tract,[1]; [7],28 h
same,mean terminal half-life in lymph nodes,[1]; [7],110 h
same,"RMD concentration in GI tract at 4 h postinfusion, median","[1]; median of 3 RMs, intestinal biopsies, LC-MS/MS","3,665 ng/g"
same,terminal elimination half-life in clinical studies,[2],6.6 to 19 h
same,terminal elimination half-life reported in humans,[2],~ 3.5 h
